Test results taken from patent US20240034731A1, “AZA-QUINAZOLINE COMPOUNDS AND METHODS OF USE” (Iambic Therapeutics, Inc., priority 2022, published 2024).
pIC50: −log10 of the molar value.

What was measured:
CDK1/Cyclin B1 = CDK1/Cyclin B1 (Homo sapiens (Human), UniProt P06493); experiment: CDK1/Cyclin B1 ADP-Glo Kinase Assay; assay type: biochemical; conditions: ADP-Glo, 80 uM ATP; read-out: CDK1 Cyclin B1 IC50
Description: CDK1/Cyclin B1 ADP-Glo Kinase Assay
(§1) The purpose of CDK1/Cyclin B1 assay is to evaluate the inhibition (% inhibition and IC50 values) of small molecule inhibitors by using a Luminescent based ADP-Glo assay. CDK1/Cyclin B1 catalyzes the production of ADP from ATP. ADP-Glo assay monitors ADP producing biochemical reactions. ADP-Glo is performed in 2 steps upon completion of kinase reaction: a combined termination of kinase reaction and depletion of remaining ATP in the first step, and conversion of generated ADP to ATP and the newly produced ATP to light output using luciferase/luciferin reaction in the second step. The luminescent signal generated is proportional to the ADP concentration produced and is correlated with the kinase activity. CDK1/Cyclin B1 was purchased from Carna (Cat 04-102). […] The assay was initiated with the addition of ATP-containing substrate solution, following a 30-minute pre-incubation of enzyme and inhibitor at room temperature in the reaction mixture. The reaction was stopped after 90 minutes at room temperature by the addition of 10 uL of ADP-GLO Reagent. After a 90 minute incubation, 20 uL of Kinase Detection Reagent was added. Samples were incubated for 40 minutes, after which plate well luminescence was measured on a Envision microplate reader. The IC50 determinations were made from a plot of the fractional velocity as a function of inhibitor concentration fit to the 4 parameters IC50 equation.

CDK4/Cyclin D1 = CDK4/Cyclin D1 (Homo sapiens (Human), UniProt P11802); experiment: CDK4/Cyclin D1 CHEF Assay (AQT0258 peptide); assay type: biochemical; conditions: 200 uM ATP, read-out: CDK4/ CyclinD1 AQT IC50
CDK4/Cyclin D1, sequence (P11802 whole entry): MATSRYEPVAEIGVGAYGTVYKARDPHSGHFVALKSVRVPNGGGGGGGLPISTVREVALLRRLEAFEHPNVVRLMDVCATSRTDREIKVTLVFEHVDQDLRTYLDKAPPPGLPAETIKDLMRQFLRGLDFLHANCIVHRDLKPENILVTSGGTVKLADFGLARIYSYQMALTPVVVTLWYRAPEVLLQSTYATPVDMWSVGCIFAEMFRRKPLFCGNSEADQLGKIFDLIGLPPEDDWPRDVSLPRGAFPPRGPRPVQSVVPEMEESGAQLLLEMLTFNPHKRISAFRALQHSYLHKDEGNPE
CDK4/Cyclin D1, sequence (P24385 whole entry partner): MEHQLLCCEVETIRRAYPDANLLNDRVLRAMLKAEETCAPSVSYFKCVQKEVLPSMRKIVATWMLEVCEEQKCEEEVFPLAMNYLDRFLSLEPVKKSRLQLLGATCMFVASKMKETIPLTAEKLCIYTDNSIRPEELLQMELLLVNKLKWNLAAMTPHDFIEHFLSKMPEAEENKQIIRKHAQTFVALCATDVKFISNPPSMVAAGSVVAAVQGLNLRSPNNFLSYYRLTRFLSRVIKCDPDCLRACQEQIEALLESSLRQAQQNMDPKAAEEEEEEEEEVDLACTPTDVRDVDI
Source text: CDK4/Cyclin D1 CHEF Assay
The purpose of CDK4/Cyclin D1 assay is to evaluate the inhibition (% inhibition and IC50 values) of small molecule inhibitors by using a Chelation-Enhance Fluorescence (CHEF) assay. In a CHEF assay, phosphorylation of a peptide substrate results in proportional increase in fluorescence. CHEF kinase assay use peptide substrates containing a synthetic alpha-amino acid with a side chain bearing an 8-hydroxyquinoline derivative (sulfonamido-oxide, Sox). Upon phosphorylation of a nearby serine, threonine or tyrosine and in the presence of Mg(II), the spectral properties of the Sox residue are altered, emitting 485 nm wavelength light when excited with a 360 nm wavelength light source. CDK4/Cyclin D1 catalyzes the phosphoryl transfer to the SOX-labeled substrate peptide AQT0258 from Assayquant Technologies. […] The reaction was initiated with the addition of substrate solution, following a 30-minute pre-incubation of enzyme and inhibitor at 22° C. in the reaction mix. Reactions were allowed to proceed for 3 hrs at 22° C., followed by fluorescence read of the reaction. The IC50 determinations were made from a plot of the fractional velocity as a function of inhibitor concentration fit to the 4 parameters IC50 equation.

CDK2/Cyclin E1 = CDK2/Cyclin E1 (Homo sapiens (Human), UniProt P24941); experiment: CDK2/Cyclin E1 Full length ADP-Glo Kinase Assay; assay type: biochemical; conditions: 20 uM ATP, read-out: CDK2/ CyclinE1 IC50
Description: CDK2/Cyclin E1 Full length ADP-Glo Kinase Assay
as §1, with “of CDK2/Cyclin E1” for “of CDK1/Cyclin B1”, “assay. CDK2/Cyclin E1 full length” for “assay. CDK1/Cyclin B1”, “activity. CDK2/Cyclin E1” for “activity. CDK1/Cyclin B1”, “from Eurofins” for “from Carna”, “(Cat 14-475M).” for “(Cat 04-102).”

CDK6/Cyclin D3 = CDK6/Cyclin D3 (Homo sapiens (Human), UniProt Q00534); experiment: CDK6/Cyclin D3 ADP-Glo Kinase Assay; assay type: biochemical; conditions: 100 uM ATP, read-out: CDK6/ CyclinD3 IC50
CDK6/Cyclin D3, sequence (Q00534 whole entry): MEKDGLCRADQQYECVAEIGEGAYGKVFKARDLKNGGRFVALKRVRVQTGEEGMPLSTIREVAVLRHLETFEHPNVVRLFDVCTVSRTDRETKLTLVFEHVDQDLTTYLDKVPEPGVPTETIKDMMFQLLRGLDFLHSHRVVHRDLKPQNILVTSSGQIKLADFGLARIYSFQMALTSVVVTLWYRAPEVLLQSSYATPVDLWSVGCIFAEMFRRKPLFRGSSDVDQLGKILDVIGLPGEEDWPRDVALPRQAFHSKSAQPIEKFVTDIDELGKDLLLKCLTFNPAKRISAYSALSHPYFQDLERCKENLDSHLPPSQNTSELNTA
CDK6/Cyclin D3, sequence (P30281 whole entry partner): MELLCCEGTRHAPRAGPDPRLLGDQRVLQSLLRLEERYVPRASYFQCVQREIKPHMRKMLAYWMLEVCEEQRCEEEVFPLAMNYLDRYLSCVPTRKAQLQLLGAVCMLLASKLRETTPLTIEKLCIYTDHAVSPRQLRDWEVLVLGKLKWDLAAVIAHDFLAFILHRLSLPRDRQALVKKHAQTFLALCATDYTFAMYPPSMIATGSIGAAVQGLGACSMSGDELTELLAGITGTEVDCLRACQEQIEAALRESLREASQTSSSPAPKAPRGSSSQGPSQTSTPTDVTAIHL
Description: CDK6/Cyclin D3 ADP-Glo Kinase Assay
The purpose of the CDK6/Cyclin D3 assay is to evaluate the inhibition (% inhibition and IC50 values) in the presence of small molecule inhibitors by using a Luminescent based ADP-Glo assay. CDK6/Cyclin D3 catalyzes the production of ADP from ATP. ADP-Glo assay monitors ADP producing biochemical reactions. ADP-Glo is performed in 2 steps upon completion of kinase reaction: a combined termination of kinase reaction and depletion of remaining ATP in the first step, and conversion of generated ADP to […] and the newly produced ATP to light output using luciferase/luciferin reaction in the second step. The luminescent signal generated is proportional to the ADP concentration produced and is correlated with the kinase activity CDK6/Cyclin D3 was purchased from Carna. […] The assay was initiated with the addition of ATP-containing substrate solution, following a 30-minute pre-incubation of enzyme and inhibitor at room temperature in the reaction mixture. The reaction was stopped after 90 minutes at room temperature by the addition of 10 uL of ADP-GLO Reagent. After a 90-minute incubation, 20 uL of Kinase Detection Reagent was added. Samples were incubated for 40 minutes, after which plate well luminescence was measured on a Envision microplate reader. The IC50 determinations were made from a plot of the fractional velocity as a function of inhibitor concentration fit to the 4 parameters IC50 equation.

MCF-7 cells = experiment: Cell Growth Inhibition, MCF-7 (CellTiterGlo, 6 days); assay type: cell-based; conditions: Homo sapiens, MCF7, 144 h, MCF-7, 6-day treatment
Source text: (§2) MCF-7 and OVCAR-3 cells were used to evaluate the anti-proliferation activity of the CDK inhibitors. MCF-7 (ATCC, HTB-22) cells are epithelial cells from a patient with ER+ metastatic adenocarcinoma. OVCAR-3 (ATCC, HTB-161) cells were derived from malignant ascites of a patient with ovarian cancer and are known to have CCNE1 amplification. Both cell lines were maintained in RPMI media supplemented with 10% fetal bovine serum. For cell growth inhibition assay, CDK inhibitors in DMSO solution were dispensed with either Echo 655 (Beckman Coulter) or Tecan D300e (HP) into 384-well plates (Corning #3765) and the 384-well plates were UV-sterilized prior to the assay. The inhibitors were typically tested in the 10-10,000 nM concentration range with half-log serial dilutions. MCF-7 or OVCAR-3 (500 cells/30 μL/well) were added to each well using Multidrop Combi (ThermoFisher) using standard cassettes. The assay plates with cells were cultured at 37° C., 5% CO2 for 6 days. At the end of the 6-day treatment, 30 μL of CellTiterGlo 2.0 (Promega) was added to each well and the luminescent signal was read using CLARIOstar plus (BMG). The percentage of cell growth inhibition (% CGI) was calculated using the following formula 00 CGI=100-100×luminescencesampie/luminescencecontroi. The half maximal inhibitory concentration (IC50) was determined by nonlinear curve fitting (four parameters, variable slope).

OVCAR-3 cells = experiment: Cell Growth Inhibition, OVCAR-3 (CellTiterGlo, 6 days); assay type: cell-based; conditions: Homo sapiens, 144 h, OVCAR-3, 6-day treatment
Source text: as §2

CDK1/Cyclin B1, sequence (P06493 whole entry): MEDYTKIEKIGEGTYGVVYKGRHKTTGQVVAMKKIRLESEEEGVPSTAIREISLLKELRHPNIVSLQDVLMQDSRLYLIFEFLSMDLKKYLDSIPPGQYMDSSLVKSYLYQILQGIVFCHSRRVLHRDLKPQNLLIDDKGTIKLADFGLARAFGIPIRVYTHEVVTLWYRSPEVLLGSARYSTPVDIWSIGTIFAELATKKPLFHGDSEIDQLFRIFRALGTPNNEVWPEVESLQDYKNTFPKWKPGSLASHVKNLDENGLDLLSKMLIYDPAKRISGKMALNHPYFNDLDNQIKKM
CDK1/Cyclin B1, sequence (P14635 whole entry partner): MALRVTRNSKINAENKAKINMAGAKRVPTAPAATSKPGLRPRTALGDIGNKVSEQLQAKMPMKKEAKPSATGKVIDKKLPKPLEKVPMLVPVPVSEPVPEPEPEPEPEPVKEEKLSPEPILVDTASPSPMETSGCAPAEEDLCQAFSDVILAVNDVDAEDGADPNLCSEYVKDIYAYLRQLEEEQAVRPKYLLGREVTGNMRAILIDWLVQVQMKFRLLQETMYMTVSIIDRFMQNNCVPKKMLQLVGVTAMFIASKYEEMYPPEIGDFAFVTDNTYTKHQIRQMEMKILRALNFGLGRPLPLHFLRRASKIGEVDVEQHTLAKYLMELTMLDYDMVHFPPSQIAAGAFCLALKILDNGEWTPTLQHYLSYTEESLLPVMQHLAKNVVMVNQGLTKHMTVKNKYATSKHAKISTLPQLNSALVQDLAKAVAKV

For `Cc1cc2cnc(NC3CCN(S(C)(=O)=O)CC3)nc2c(C2CC(O)(C3CC3)C2)n1` (stereo not drawn) [Example 88, 1-cyclopropyl-3-(6-methyl-2-((1-(methylsulfonyl)piperidin-4-yl)amino)pyrido[3,4-d]pyrimidin-8-yl)cyclobutan-1-ol], the pIC50 (CDK1/Cyclin B1) was 6.30 to 6.70, the pIC50 (CDK4/Cyclin D1) was over 6.70 and the pIC50 (CDK2/Cyclin E1) was over 6.70. It also gave a pIC50 (CDK6/Cyclin D3) of over 6.70.
Work on `Cc1cc2cnc(NC3CCN(S(C)(=O)=O)CC3)nc2c(N2CC3(CNC(=O)C3)C2)n1` [Compound 81, 2-(6-methyl-2-((1-(methylsulfonyl)piperidin-4-yl)amino)pyrido[3,4-d]pyrimidin-8-yl)-2,6-diazaspiro[3.4]octan-7-one] yielded a pIC50 (CDK1/Cyclin B1) of 6.30 to 6.70, a pIC50 (CDK4/Cyclin D1) of over 6.70 and a pIC50 (CDK2/Cyclin E1) of over 6.70. For the same compound, the pIC50 (CDK6/Cyclin D3) was 6.30 to 6.70.
Compound `Cc1cc2cnc(NC3CCN(S(C)(=O)=O)CC3)nc2c(C2CC3(CNCC3(F)F)C2)n1` (stereo not drawn) [Compound 99, 8-(8,8-difluoro-6-azaspiro[3.4]octan-2-yl)-6-methyl-N-(1-(methylsulfonyl)piperidin-4-yl)pyrido[3,4-d]pyrimidin-2-amine] has a pIC50 (CDK1/Cyclin B1) of over 6.70, a pIC50 (CDK4/Cyclin D1) of over 6.70 and a pIC50 (CDK2/Cyclin E1) of over 6.70. For the same compound, the pIC50 (CDK6/Cyclin D3) was over 6.70.
`Cc1cc2cnc(NC3CCN(S(C)(=O)=O)CC3)nc2c(N2CC3(CCC(=O)NC3)C2)n1` [Compound 82, 2-(6-methyl-2-((1-(methylsulfonyl)piperidin-4-yl)amino)pyrido[3,4-d]pyrimidin-8-yl)-2,6-diazaspiro[3.5]nonan-7-one] showed a pIC50 (CDK1/Cyclin B1) of 6.30 to 6.70, a pIC50 (CDK4/Cyclin D1) of 6.30 to 6.70 and a pIC50 (CDK2/Cyclin E1) of over 6.70. The pIC50 (CDK6/Cyclin D3) was 6.30 to 6.70.
For `Cc1cc2cnc(NC3CCN(S(C)(=O)=O)CC3)nc2c(N2CC3(CN(C)C[C@@H]3F)C2)n1` [Compound 103, (R)-8-(8-fluoro-6-methyl-2,6-diazaspiro[3.4]octan-2-yl)-6-methyl-N-(1-(methylsulfonyl)piperidin-4-yl)pyrido[3,4-d]pyrimidin-2-amine], the pIC50 (CDK4/Cyclin D1) was over 6.70 and the pIC50 (CDK6/Cyclin D3) was over 6.70.
In the case of `Cc1cc2cnc(NC3CCN(S(C)(=O)=O)CC3)nc2c(N2CC3(CN(C)CC3(F)F)C2)n1` [Compound 101, 8-(8,8-difluoro-6-methyl-2,6-diazaspiro[3.4]octan-2-yl)-6-methyl-N-(1-(methylsulfonyl)piperidin-4-yl)pyrido[3,4-d]pyrimidin-2-amine], the pIC50 (CDK1/Cyclin B1) was 6.30 to 6.70, the pIC50 (CDK4/Cyclin D1) was over 6.70 and the pIC50 (CDK2/Cyclin E1) was over 6.70. The pIC50 (CDK6/Cyclin D3) was over 6.70.
`Cc1cc2cnc(NC3CCN(S(=O)(=O)C4CC4)CC3)nc2c(N2CC(F)(F)C3(CN(C)C3)C2)n1` [Compound 102, N-(1-(cyclopropylsulfonyl)piperidin-4-yl)-8-(8,8-difluoro-2-methyl-2,6-diazaspiro[3.4]octan-6-yl)-6-methylpyrido[3,4-d]pyrimidin-2-amine] showed a pIC50 (CDK1/Cyclin B1) of over 6.70, a pIC50 (CDK4/Cyclin D1) of over 6.70 and a pIC50 (CDK2/Cyclin E1) of over 6.70. The pIC50 (CDK6/Cyclin D3) was over 6.70.
`Cc1cc2cnc(NC3CCN(S(=O)(=O)C4CC4)CC3)nc2c(N2CC(C#N)(CCF)C2)n1` [Compound 68, 1-(2-((1-(cyclopropylsulfonyl)piperidin-4-yl)amino)-6-methylpyrido[3,4-d]pyrimidin-8-yl)-3-(2-fluoroethyl)azetidine-3-carbonitrile] showed a pIC50 (CDK1/Cyclin B1) of under 5.70, a pIC50 (CDK4/Cyclin D1) of 6.30 to 6.70 and a pIC50 (CDK2/Cyclin E1) of over 6.70. For the same compound, the pIC50 (CDK6/Cyclin D3) was 5.70 to 6.30.
For `Cc1cc2cnc(NC3CCN(S(C)(=O)=O)CC3)nc2c(C2CC(C)(CO)C2)n1` (stereo not drawn) [Compound 69, (1-methyl-3-(6-methyl-2-((1-(methylsulfonyl)piperidin-4-yl)amino)pyrido[3,4-d]pyrimidin-8-yl)cyclobutyl)methanol], the pIC50 (CDK1/Cyclin B1) was over 6.70, the pIC50 (CDK4/Cyclin D1) was over 6.70 and the pIC50 (CDK2/Cyclin E1) was over 6.70. The pIC50 (CDK6/Cyclin D3) was over 6.70.
In the case of `Cc1cc2cnc(NC3CCN(S(C)(=O)=O)CC3)nc2c(N2CC3(C2)CN(C2CC2)C3)n1` [Compound 42, 8-(6-cyclopropyl-2,6-diazaspiro[3.3]heptan-2-yl)-6-methyl-N-(1-(methylsulfonyl)piperidin-4-yl)pyrido[3,4-d]pyrimidin-2-amine], the pIC50 (CDK1/Cyclin B1) was under 5.70, the pIC50 (MCF-7 cells) was 5.70 to 6.30 and the pIC50 (OVCAR-3 cells) was 5.70 to 6.30.
For `CS(=O)(=O)N1CCC(Nc2ncc3ccnc(N4C[C@H]5c6ccccc6S(=O)(=O)[C@H]5C4)c3n2)CC1` [Compound 16, (3aR,8bR)-2-(2-((1-(methylsulfonyl)piperidin-4-yl)amino)pyrido[3,4-d]pyrimidin-8-yl)-2,3,3a,8b-tetrahydro-1H-benzo[4,5]thieno[2,3-c]pyrrole 4,4-dioxide], the pIC50 (CDK1/Cyclin B1) was over 6.70, the pIC50 (MCF-7 cells) was 5.70 to 6.30 and the pIC50 (OVCAR-3 cells) was 5.70 to 6.30.
With `Cc1cc2cnc(NC3CCN(S(C)(=O)=O)CC3)nc2c(N2CC3(CN(C)C[C@H]3F)C2)n1` [Compound 104, (S)-8-(8-fluoro-6-methyl-2,6-diazaspiro[3.4]octan-2-yl)-6-methyl-N-(1-(methylsulfonyl)piperidin-4-yl)pyrido[3,4-d]pyrimidin-2-amine] the pIC50 (CDK4/Cyclin D1) was over 6.70 and the pIC50 (CDK6/Cyclin D3) was 6.30 to 6.70.
